Values joined by “and” are separate entries in the source; they are usually repeats but may differ in a detail not shown here. Equal entries are not always repeated.

From publication PMC4501119, “Cholestenoic acid, an endogenous cholesterol metabolite, is a potent γ-secretase modulator” (Molecular Neurodegeneration, 2015) come the findings set out here.

Test [1] deals with T1, γ-secretase (Homo sapiens, UniProt P49768).
T1 construct: The membrane derived from the H4 neuroglioma cells overexpressing APP695wt were prepared by carbonate extraction; endogenous in cells; host or cells: H4 neuroglioma cells overexpressing APP695wt (membranes, carbonate extraction)
Nature of the test: In vitro γ-secretase (broken cell) assay, membranes of H4 neuroglioma cells overexpressing APP695wt, Aβ ELISA. Type of test: biochemical. The settings on record: vs DMSO control, 2 h incubation. As to the method:
(§1) Broken cell assays were performed with slight modifications from the previous studies. The membrane derived from the H4 neuroglioma cells overexpressing APP695wt were prepared by carbonate extraction and incubated at 37 °C for 2 h with CA at various concentrations. Aβ levels were quantified by sandwich ELISAs. For Aβ and AICD spectra, the recombinant C100Flag proteins were overexpressed and purified from Escherichia coli BL21 using a HiTrap Q-column (GE Life Science, Little Chalfont, U.K.). The membrane containing γ-secretase was isolated from the CHO S-1 cell line using sodium carbonate (100 mM, pH 11.0). For the in vitro γ-secretase assay, C100Flag recombinant protein at 25 μM was incubated with the membrane (100 μg/mL) in the presence of CA (20 μM) and DMSO in 150 mM sodium citrate buffer (pH 6.8) containing complete protease inhibitor (Roche, Indianapolis, IN) for 2 h at 37 °C.
Monoclonal antibodies to Aβ were generated by the Mayo Clinic Immunology Core facilities (Jacksonville, FL, USA). Ab5 recognizes an epitope in the amino terminus of Aβ (Aβ1-16), recognizes both monomeric and aggregated Aβ, and is human specific. […] Ab 2.1.3 was raised against Aβ35-42 and is specific for Aβx-42. […] For cell-based screens, Aβ was captured from conditioned medium with either Ab5, Ab38, Ab13.1.1, or Ab2.1.3 (coated at 10-50 μg/ml in EC buffer: 5 mM NaH2PO4-H2O, 20 mM Na2HPO4, 400 mM NaCl, 2.5 mM EDTA-full name, 151.5 μM BSA, 813 μM CHAPS, and 7.7 mM NaN3) on Immulon 4HBX Flat-Bottom Microfilter 96-well plates (Thermo Scientific, Waltham, MA, USA). Total Aβ level was determined by capture with Ab5 and detected with horseradish peroxidase (HRP)-conjugated 4G8 (a monoclonal antibody against Aβ17-24; Covance, Waltham, MA, USA) with the other Aβ peptides detected with HRP-conjugated Ab5. For the cell-free assay and measuring mouse endogenous Aβ, HRP-conjugated 4G8 was used as the secondary detection antibody. Aβ standards (Bachem, King of Prussia, PA, USA) were prepared by dissolving in hexafluoroisopropanol (HFIP) at 1 mg/ml with sonication, dried under nitrogen, resuspended at 2 mg/ml HFIP, sonicated again and dried under nitrogen. The resulting Aβ was resuspended in 0.01 % ammonium hydroxide, portioned into aliquots in EC buffer, and frozen at −80 °C. Following these steps, the Aβ is monomeric, as determined by size-exclusion chromatography.
A general note: An ELISA detects its analyte on a solid surface through an enzyme-linked reagent.

For test [2], the target named is T1, γ-secretase. The test is described as follows: In vitro γ-secretase assay with recombinant C100Flag and CHO S-1 membrane, Aβ and AICD spectra by MALDI-TOF. The test is classed as biochemical. The settings on record: 20 μM. Here is the method:
as §1
Conditioned media from the CHO-2B7 cells and the samples prepared from in vitro γ-secretase studies were used to analyze Aβ and AICD profiles using matrix-assisted laser desorption/ionization time of flight (MALDI-TOF) mass spectrometry analysis. The secreted Aβ peptides were analyzed as previously described with the following modifications. […] Samples were analyzed using a Bruker Microflex LRF-MALDI-TOF mass spectrometer.

Consider `CC(CCC[C@@H](C)C(=O)O)[C@H]1CCC2C3CC=C4C[C@@H](O)CC[C@]4(C)C3CC[C@@]21C` (stereo partly drawn) [Cmpd 2a, 25(R)-cholestenoic acid], for which, in test [1], the “change in total Aβ levels” value is given as “without any significant changes”. Moreover, the “decrease of Aβ42 production” value in test [1] (CA at 150 μM, listed as CA) is 50% and 51%. Also, the “ε-site utilizations (AICD49-99 and AICD50-99)” value in test [2] (vs DMSO control) is “did not affect”. Moreover, the “Aβ spectra (MALDI-TOF)” value in test [2] (vs DMSO treated control) was “decrease Aβ42 peak and increase Aβ38 peak”.
